In brackets after ≈: the same amount, converted by molar mass. Numbered stars: 1 amine (or outer) side, 2 acyl side, 3 side chain; on linkers, the order of the positions; unused ones are H or OH. Square brackets hold non-standard residues; d marks the D form. Peptide text beside a SMILES is read from it. * marks the point of attachment. ξ: configuration not given here. X1 = C[C@H]1C[C@@H](C2=N[C@](C)(C(=O)[*:2])CS2)N([*:1])C1; ξNMeTyr(3-Br) = CNC(Cc1ccc(O)c(Br)c1)C(=O)O; NMeF = CN[C@@H](Cc1ccccc1)C(=O)O; Piv = CC(C)(C)C(=O)*; X2 = CCC(=O)C1CCCN1*
Assays:
Type in all cases: cell-based
[1] = system: HeLa S3 cell; experiment: growth inhibitory activity against HeLa S3 cell; conditions: Homo sapiens
Source text: The present inventors conducted research on the derivatives of the compound to complete the present invention.
The cyanobacterium Lyngbya sp. collected in Okinawa Prefecture was extracted with MeOH, and partitioned between H2O and AcOEt. The resulting AcOEt layer was further partitioned between 90% MeOH and n-hexane. The 90% MeOH layer thus obtained was separated and purified with various chromatographies using the growth inhibitory activity against tumor cells as an index. As a result, Bisebromoamide (1), which is a novel peptide, was isolated.
The planar structure of the compound was primarily determined by various two-dimensional NMR spectral analyses. […] Subsequently, in order to determine the absolute configuration of Bisebromoamide (1) including eight chiral centers, acid hydrolysis was conducted using 9 M HCl. The resulting acid hydrolysate was fractionated by HPLC, obtaining fractions of Leu, N-Me-Tyr, 4-Me-Pro, N-Me-Phe, Opp, and that of a mixture of Ala and 2-methylcystine. […] Furthermore, 4-Me-Pro, Opp, Ala, and 2-methylcystine were subjected to derivatization using Marfey's reagent, and then analyzed by reversed phase HPLC. […] However, it also turned out that the Opp and 4-Me-Pro completely epimerized at a-position during the acid hydrolysis. Therefore, we reduced the ketone of Opp using NaBH4 before conducting the acid hydrolysis. […]

[2] = system: phosphorylation of ERK; experiment: protein kinase inhibition: Western blot of phosphorylated ERK in PDGF-stimulated NRK cells
Description: (§1) NRK cells were seeded in a 96-well plate, and cultured for 3 days. A sample solution was added thereto and treated for 3 hours, followed by PDGF stimulation. Electrophoretic samples were prepared to conduct Western blot using antibodies against phosphorylated signal transduction molecules (AKT, ERK, PKD, PLCγ1, and S6 ribosomal protein) and phosphotyrosine. The effect on the intracellular signal transduction from a PDGF receptor was evaluated. […] The eIF4E, 4E-BP-1, and histone H3 bands confirmed that equal amounts of proteins subjected to electrophoresis.
(§2) Bisebromoamide (1) was added in such a manner that the final concentration became 0.01, 0.1, 1, and 10 μM, in order to determine the presence or absence of inhibition, and the inhibition pattern thereof. The effective inhibitory concentration against each signal transduction molecule activity was investigated.

[3] = system: 39 types of human cancer cells; experiment: growth inhibitory activity screening using 39 types of human cancer cells (sulforhodamine B colorimetric assay); conditions: 48 h, 39 human cancer cell lines, cultured for 2 days, read-out: average GI50 value across all of the cell lines tested
Description: Bisebromoamide (1) is a strong cytotoxic substance containing a high degree of D-amino acids and unusual amino acids. In particular, compounds having a 4-Me-Pro, N-Me-3-bromo-Tyr, and N-pivalamide moiety linking to 4-methylthiazoline are very rare, and the 2-Opp unit is unprecedented in natural products. Bisebromoamide (1) was subjected to screening using 39 types of human cancer cells. […] The average GI50 value across all of the cell lines tested was 40 nM.
Cancer cells were seeded in a 96-well plate. A sample solution was added thereto on the following day, and cultured for 2 days. Cell growth was evaluated by sulforhodamine B colorimetric assay. The 39 total cancer cell lines that were tested included 7 lung cancer (Lu) lines, 6 stomach cancer (St) lines, 5 colon cancer (Co) lines, 6 brain neoplasm (CNS) lines, 5 breast cancer (Br) lines, 2 renal cancer (Re) lines, 2 prostatic cancer (xPg) lines, and 1 melanoma (Me) line. The effective concentration deviation of each cancer cell stock from the mean effective drug concentration of the 39 cancer cell lines measured was calculated and expressed as the fingerprint.

[4] = system: phosphorylation of PLCγ1; experiment: protein kinase inhibition: Western blot of phosphorylated PLCγ1 in PDGF-stimulated NRK cells; conditions: treated 3 hours, PDGF stimulation, 10, 1 and 0.1 μM
Description: as §1, §2

[5] = system: phosphorylation of AKT; experiment: protein kinase inhibition: Western blot of phosphorylated AKT in PDGF-stimulated NRK cells; conditions: treated 3 hours, PDGF stimulation, 10, 1 and 0.1 μM
Description: as §1, §2

[6] = system: phosphorylation of S6 ribosomal protein (S6R); experiment: protein kinase inhibition: Western blot of phosphorylated S6 ribosomal protein in PDGF-stimulated NRK cells; conditions: treated 3 hours, PDGF stimulation, 10, 1 and 0.1 μM
Description: as §1, §2

[7] = system: phosphorylation of PKD/PKC; experiment: protein kinase inhibition: Western blot of phosphorylated PKD/PKC in PDGF-stimulated NRK cells; conditions: treated 3 hours, PDGF stimulation, 10, 1 and 0.1 μM
Description: as §1, §2

[8] = system: cancer cell growth; experiment: inhibitory activity of derivatives against cancer cell growth
Source text: The alcohol and hydrazone were examined for their inhibitory activities against cancer cell growth and phosphorylation of ERK.

Compound	IC50 [1] [µg/mL]	inhibition of phosphorylation of ERK ([2]; NRK cells, treated 3 hours, PDGF stimulation, 10, 1 and 0.1 μM)	GI50 [3] [nM]	effect on phosphorylation of PLCγ1 [4]	effect on phosphorylation of AKT [5]	effect on phosphorylation of S6 ribosomal protein (S6R) [6]	effect on phosphorylation of PKD/PKC [7]	inhibitory activity against phosphorylation of ERK, compared with Bisebromoamide (1) [2]	inhibitory activity against cancer cell growth, compared with Bisebromoamide (1) [8]
CCC(=O)C1CCCN1C(=O)[C@H](Cc1ccccc1)N(C)C(=O)[C@@H](CC(C)C)NC(=O)[C@]1(C)CSC([C@@H]2C[C@H](C)CN2C(=O)C(Cc2ccc(O)c(Br)c2)N(C)C(=O)[C@H](C)NC(=O)C(C)(C)C)=N1 (stereo partly drawn) [Bisebromoamide (1), Bisebromoamide] (Piv-A[ξNMeTyr(3-Br)][X1][dL][NMeF]-X2)	0.04 (≈ 0.0391 µM)	selectively inhibited	40	no effect	no effect	no effect	no effect		
CCO [alcohol]								Results similar to those for Bisebromoamide (1)	Results similar to those for Bisebromoamide (1)
